Molecular target: NA from A/H3N2 (Influenza A virus, UniProt O91745)
Assay: biochemical
Assay type: biochemical, seasonal A/H3N2
Details: not given

Sequence of NA from A/H3N2 (O91745 whole entry, looked up): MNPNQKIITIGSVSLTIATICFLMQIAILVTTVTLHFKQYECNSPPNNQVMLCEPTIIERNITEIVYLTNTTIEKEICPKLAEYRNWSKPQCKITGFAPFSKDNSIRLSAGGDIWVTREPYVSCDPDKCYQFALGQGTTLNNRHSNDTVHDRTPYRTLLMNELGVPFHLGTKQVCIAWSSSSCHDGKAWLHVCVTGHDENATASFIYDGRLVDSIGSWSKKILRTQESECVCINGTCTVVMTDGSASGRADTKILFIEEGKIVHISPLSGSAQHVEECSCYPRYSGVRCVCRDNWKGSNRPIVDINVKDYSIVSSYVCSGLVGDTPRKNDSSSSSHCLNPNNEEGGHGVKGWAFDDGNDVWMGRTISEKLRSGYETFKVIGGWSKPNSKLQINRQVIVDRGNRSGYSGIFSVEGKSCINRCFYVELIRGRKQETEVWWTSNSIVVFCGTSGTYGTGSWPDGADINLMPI

Structure (SMILES)	Inhibition rate, 1 μM	Inhibition rate, 10 μM
CCC(CC)O[C@@H]1C=C(C(=O)O)C[C@H](NC(=O)c2cc(-c3ccc(Cl)cc3)n[nH]2)[C@H]1NC(C)=O [OC-011]	14.65%	50.43%
CCC(CC)O[C@@H]1C=C(C(=O)O)C[C@H](NC(=O)c2cc(-c3ccc(F)cc3)n[nH]2)[C@H]1NC(C)=O [OC-012]	33.62%	56.45%
CCC(CC)O[C@@H]1C=C(C(=O)O)C[C@H](NC(=O)c2cc(C3CC3)nn2-c2ccccc2)[C@H]1NC(C)=O [OC-013]	19.92%	30.41%
CCC(CC)O[C@@H]1C=C(C(=O)O)C[C@H](NC(=O)c2cc(-c3cccs3)n[nH]2)[C@H]1NC(C)=O [OC-014]	21.57%	40.02%
CCC(CC)O[C@@H]1C=C(C(=O)O)C[C@H](NC(=O)c2cc(-c3ccc(Cl)cc3)nn2CC2CC2)[C@H]1NC(C)=O [OC-015]	16.52%	31.50%
CCC(CC)O[C@@H]1C=C(C(=O)O)C[C@H](NC(=O)c2cnn(-c3ccccc3C)c2)[C@H]1NC(C)=O [OC-016]	12.74%	38.37%
CCC(CC)O[C@@H]1C=C(C(=O)O)C[C@H](NC(=O)c2cc(-c3ccc(OC)cc3)n[nH]2)[C@H]1NC(C)=O [OC-017]	14.83%	42.02%
CCC(CC)O[C@@H]1C=C(C(=O)O)C[C@H](NC(=O)c2cc(-c3ccc(Cl)cc3)nn2CC2CCC2)[C@H]1NC(C)=O [OC-018]	11.12%	39.81%
CCC(CC)O[C@@H]1C=C(C(=O)O)C[C@H](NC(=O)c2cc(-c3ccc(Cl)cc3)nn2CC2CCCCC2)[C@H]1NC(C)=O [OC-019]	11.62%	48.50%
CCC(CC)O[C@@H]1C=C(C(=O)O)C[C@H](NC(=O)c2cc(C3CC3)n(-c3ccc(C(F)(F)F)cc3)n2)[C@H]1NC(C)=O [OC-020]	8.26%	44.47%
CCC(CC)O[C@@H]1C=C(C(=O)O)C[C@H](NC(=O)c2cc(C3CC3)n(-c3ccccc3)n2)[C@H]1NC(C)=O [OC-021]	7.13%	30.57%
CCC(CC)O[C@@H]1C=C(C(=O)O)C[C@H](NC(=O)c2cnn(-c3ccc(OC)cc3)c2)[C@H]1NC(C)=O [OC-022]	6.31%	34.15%
CCC(CC)O[C@@H]1C=C(C(=O)O)C[C@H](NC(=O)c2cc(C3CC3)n(-c3cccc(C)c3)n2)[C@H]1NC(C)=O [OC-023]	6.24%	34.75%
CCC(CC)O[C@@H]1C=C(C(=O)O)C[C@H](NC(=O)c2cc(C3CC3)n(-c3ccc(Br)cc3)n2)[C@H]1NC(C)=O [OC-024]	5.84%	42.68%
CCC(CC)O[C@@H]1C=C(C(=O)O)C[C@H](NC(=O)c2cc(C3CC3)nn2-c2ccc(Br)cc2)[C@H]1NC(C)=O [OC-025]	2.19%	37.17%
CCC(CC)O[C@@H]1C=C(C(=O)O)C[C@H](NC(=O)c2cnn(-c3ccc(Cl)cc3)c2)[C@H]1NC(C)=O [OC-026]	−0.26%	25.67%
CCC(CC)O[C@@H]1C=C(C(=O)O)C[C@H](NC(=O)c2cc(C3CC3)nn2-c2cccc(C)c2)[C@H]1NC(C)=O [OC-027]	0.70%	31.53%

Same assay, conditions: Table 4, Example 34

Structure (SMILES)	IC50
CCC(CC)O[C@@H]1C=C(C(=O)O)C[C@H](NC(=O)c2cc(-c3ccc(F)cc3)n[nH]2)[C@H]1NC(C)=O [OC-012]	11.6 µM

From patent US12378208B2, “N-substituted oseltamivir derivatives with antimicrobial activity” (THE HONG KONG POLYTECHNIC UNIVERSITY, priority 2019, dated 2025)
